Measured values from the supplement of paper PMC11451515.

Legend:
Assay in all cases: AUC of viability dose-response curve (% viability x log10 dose units); higher = less sensitive
Settings in all cases: 48 h
[1] = tested on: SEM cells
Outline: (§1)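 In 1536-well plates, leukemia cells adapted to each medium (500 or 1000 cells/well) were exposed for 48 h at 37°C to library compounds in DMSO across 11 threefold doses, 47 μM down to 0.79 nM. Viability was read by CellTiter-Glo One luminescence and normalised per plate to DMSO and cell-free wells. A four-parameter log-logistic fit over log10 doses was integrated by trapezoidal rule. This yielded the area under the curve, with over-full-viability curves scaled and quality-control failures dropped.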

[2] = tested on: NOMO1
Outline: as §1

[3] = tested on: P12-Ichikawa
Outline: as §1

[4] = RPMI 5 mM glucose + 10% dialyzed FBS

Row | SMILES | AUC of viability dose-response curve ([1]; HPLM + 10% dialyzed FBS) | AUC of viability dose-response curve ([1]; RPMI 5 mM glucose + 10% FBS) | AUC of viability dose-response curve [1, 4] | AUC of viability dose-response curve ([2]; HPLM + 10% dialyzed FBS) | AUC of viability dose-response curve ([2]; RPMI 5 mM glucose + 10% FBS) | AUC of viability dose-response curve [2, 4] | AUC of viability dose-response curve ([3]; HPLM + 10% dialyzed FBS) | AUC of viability dose-response curve ([3]; RPMI 5 mM glucose + 10% FBS) | AUC of viability dose-response curve [3, 4]
1 | Cc1ccc([S+](=O)([O-])OCC(=O)Nc2ccc(C(=O)O)c(O)c2)cc1 | 458 | 438 | 455 | 469 | 460 | 448 | 446 | 469 | 465
2 | CC(C)(O)CC(=O)NCCn1ccc2ncnc(Nc3ccc(Oc4cccc(C(F)(F)F)c4)c(Cl)c3)c21 | 436 | 415 | 432 | 415 | 450 | 433 | 425 | 437 | 436
3 | NC(=O)c1ccc(N(C(N)=O)c2c(F)cccc2F)nc1-c1ccc(F)cc1F | 412 | 454 | 411 | 472 | 447 | 429 | 476 | 468 | 449
4 | O=C(O)c1cccnc1Nc1cccc(C(F)(F)F)c1 | 466 | 420 | 436 | 446 | 452 | 461 | 451 | 451 | 444
5 | COc1ccc2c(c1)CN(C)CC2c1ccc(Cl)c(Cl)c1 (centres undefined) | 465 | 467 | 443 | 430 | 463 | 437 | 475 | 471 | 461
6 | C[C@@H]1CCO[C@H]2CN\3/C=C(/C(=O)NCC4=C(F)C=C(F)C=C4)C(=O)\C(=C3C(=O)N12)O | 447 | 454 | 465 | 458 | 442 | 452 | 456 | 460 | 459
7 | COc1cc2c(cc1OC)CN(CCc1ccc(NC(=O)c3cc(OC)c(OC)cc3NC(=O)c3cnc4ccccc4c3)cc1)CC2 | 445 | 418 | 432 | 459 | 458 | 464 | 412 | 401 | 402
8 | CC[C@@H]([C@H](C)O)n1ncn(-c2ccc(N3CCN(c4ccc(OCC5CO[C@@](Cn6cncn6)(c6ccc(F)cc6F)C5)cc4)CC3)cc2)c1=O (some centres undefined) | 452 | 452 | 458 | 457 | 427 | 423 | 450 | 447 | 425
9 | Cc1ccnc2c1NC(=O)c1cccnc1N2C1CC1 | 457 | 439 | 444 | 405 | 424 | 436 | 474 | 464 | 473
10 | CCc1ccc(/C=C2/SC(=S)NC2=O)cc1 | – | – | – | 377 | 387 | 375 | 400 | 386 | 377
11 | O=C(O)C(=O)c1cn(Cc2ccccc2)c2ccc(-c3ccc(OC(F)(F)F)cc3)cc12 | 451 | 448 | 444 | 449 | 460 | 443 | 456 | 471 | 466
12 | OCC(O)C(O)C(O)CO (centres undefined) | 421 | 429 | 402 | 430 | 414 | 447 | 455 | 432 | 429
13 | Cc1coc2c1C(=O)C(=O)c1c-2ccc2c1CCCC2(C)C | 439 | 432 | 421 | 437 | 455 | 450 | 450 | 444 | 438
14 | COc1c(C)c2c(c(O)c1C/C=C(\C)CCC(=O)O)C(=O)OC2 | 436 | 414 | 445 | 421 | 425 | 428 | 426 | 392 | 404
15 | COc1ccc2c(c1)[C@]13CCCCC1C(C2)N(C)CC3 (some centres undefined) | 435 | 443 | 467 | 468 | 466 | 469 | 467 | 474 | 457
16 | O=C(O)c1cc(/N=N/c2ccc([S+](=O)([O-])Nc3ccccn3)cc2)ccc1O | 452 | 465 | 453 | 471 | 466 | 470 | 465 | 468 | 474
17 | CC(N[C@H]1CCCC[C@@H]1NC(=O)c1ccc(Cl)cc1)c1cccc2ccccc12 (some centres undefined) | 449 | 449 | 455 | 398 | 416 | 421 | 428 | 420 | 425
18 | CC[C@H]1OC(=O)[C@H](C)C(=O)[C@H](C)[C@@H](O[C@H]2O[C@H](C)C[C@H](N(C)C)[C@H]2O)[C@](C)(OC)C[C@@H](C)C(=O)[C@H](C)[C@H]2N(CCCCn3cnc(-c4cccnc4)c3)C(=O)O[C@]12C | 447 | 462 | 453 | 439 | 447 | 459 | 452 | 444 | 395
19 | O=C(CCCN1CCN(c2ccc(F)cc2)CC1)NC1c2ccccc2CSc2ccccc21 (centres undefined) | 429 | 388 | 402 | 427 | 440 | 438 | 455 | 434 | 434
20 | CCCCOCCOc1nc(-c2ccc(C(=O)O)c(F)c2)sc1C | 456 | 460 | 475 | 420 | 437 | 436 | 464 | 434 | 439
21 | COc1cc[nH]c2ncc(C(=O)C(=O)N3CCN(C(=O)c4ccccc4)C[C@H]3C)c1-2 | 419 | 453 | 428 | 389 | 461 | 452 | 455 | 463 | 470
22 | COc1cccc2c1C(=O)c1c(O)c3c(c(O)c1C2=O)C[C@@](O)(C(=O)CO)C[C@@H]3O[C@H]1C[C@H](N)[C@H](O)[C@H](C)O1 | 286 | 268 | 271 | 367 | 369 | 374 | 338 | 326 | 346
23 | CNCC[C@H](Oc1cccc2ccccc12)c1cccs1 | 437 | 437 | 412 | 411 | 429 | 430 | 453 | 466 | 459
24 | Nc1ncnc2c1ncn2[C@@H]1O[C@H](CO)C[C@H]1O | 426 | 445 | 416 | 439 | 420 | 445 | 442 | 439 | 430

Row | SMILES | AUC of viability dose-response curve ([1]; HPLM + 10% dialyzed FBS) | AUC of viability dose-response curve ([1]; RPMI 5 mM glucose + 10% FBS) | AUC of viability dose-response curve [1, 4] | AUC of viability dose-response curve ([2]; HPLM + 10% dialyzed FBS) | AUC of viability dose-response curve ([2]; RPMI 5 mM glucose + 10% FBS) | AUC of viability dose-response curve [2, 4] | AUC of viability dose-response curve ([3]; HPLM + 10% dialyzed FBS) | AUC of viability dose-response curve ([3]; RPMI 5 mM glucose + 10% FBS) | AUC of viability dose-response curve [3, 4]
25 | CC(C)c1cc(C(C)C)c(CC(=O)N[S+](=O)([O-])Oc2c(C(C)C)cccc2C(C)C)c(C(C)C)c1 | 471 | 467 | 464 | 445 | 439 | 426 | 469 | 469 | 451
26 | CC(C(=O)O)c1ccc2c(c1)CC(=O)c1ccccc1S2 (centres undefined) | 440 | 461 | 458 | 389 | 418 | 415 | 427 | 418 | 425
27 | Cc1csc(-c2nnc(Nc3ccc(Oc4ncccc4-c4ccnc(N)n4)cc3)c3ccccc23)c1 | 258 | 211 | 226 | 408 | 334 | 357 | 178 | 191 | 226
28 | CC#CCn1c(N2CCC[C@@H](N)C2)nc2c1c(=O)n(Cc1nc(C)c3ccccc3n1)c(=O)n2C | 475 | 460 | 433 | 471 | 443 | 457 | 473 | 450 | 449
29 | CCCCCNC(=O)N1CCC(CN(Cc2ccc(Cl)cc2)Cc2ccc([N+](=O)[O-])s2)C1 (centres undefined) | 461 | 447 | 456 | – | – | – | 443 | 446 | 445
30 | NC[C@H]1O[C@H](O[C@@H]2[C@H](O)[C@@H](O[C@H]3O[C@H](CO)[C@@H](O)[C@H](N)[C@H]3O)[C@H](N)C[C@@H]2N)[C@H](O)[C@@H](O)[C@@H]1O | – | – | – | 455 | 452 | 458 | 445 | 466 | 461
31 | C=CC(=O)Nc1cc2c(Nc3ccc(F)c(Cl)c3)ncnc2cc1OCCCN1CCOCC1 | – | – | – | 421 | 429 | 438 | 421 | 441 | 442
32 | C=C[C@H]1CN2CCC1C[C@@H]2C(O)c1ccnc2ccc(OC)cc12 (some centres undefined) | – | – | – | 462 | 467 | 463 | 473 | 470 | 467
33 | COC1=C(OCCCN2CCOCC2)C=C3N=CC=C(OC4=CC=C(C=C4F)\C5=C\N=C(\NC6=CC=C(F)C=C6)N(C)C5=O)C3=C1 | 282 | 297 | 258 | 441 | 447 | 429 | 447 | 448 | 445
34 | COC(=O)C\1=C(C)\N\C(=C(/C1C2=CC=CC3=NON=C23)C(=O)OC(C)C)C (centres undefined) | 468 | 449 | 457 | 437 | 441 | 464 | 455 | 454 | 438
35 | C[C@@H](CN1CC(=O)NC(=O)C1)N1CC(=O)NC(=O)C1 | 233 | 206 | 198 | 273 | 296 | 301 | 278 | 317 | 303
36 | Nc1ccc([S+](=O)([O-])Nc2ccnn2-c2ccccc2)cc1 | 444 | 452 | 440 | 446 | 467 | 451 | 470 | 455 | 464
37 | CNC(=O)c1ccc(Nc2cc(Nc3ccccc3[S+](=O)([O-])C(C)C)c3cc[nH]c3n2)nc1 | 319 | 345 | 323 | 422 | 407 | 414 | 367 | 355 | 377
38 | C[C@]12CC[C@H]3[C@@H](CCC4=CC(=O)CC[C@@H]43)[C@@H]1CC[C@@H]2OC(=O)CCc1ccccc1 | 415 | 416 | 443 | 463 | 469 | 466 | 469 | 474 | 470
39 | CC12CC3CC(C)(C1)CC(N)(C3)C2 | 440 | 419 | 459 | 446 | 457 | 461 | 450 | 464 | 467
40 | CC(=O)Oc1ccccc1C(=O)Nc1ncc([N+](=O)[O-])s1 | 441 | 454 | 470 | 459 | 464 | 420 | 457 | 446 | 442
41 | O=P(O)(O)C(O)(Cn1ccnc1)P(=O)(O)O | 427 | 425 | 424 | 471 | 474 | 477 | 448 | 445 | 450
42 | CN(C)CC(C)(C)CNc1nn2c(-c3ccccc3)nnc2cc1C1CCC1 | – | – | – | 416 | 447 | 459 | 411 | 405 | 433
43 | N[C@@H]1CONC1=O | 418 | 443 | 431 | 474 | 441 | 464 | 468 | 474 | 465
44 | Cc1cccc(Nc2ccncc2[S+](=O)([O-])NC(=O)NC(C)C)c1 | 409 | 457 | 459 | 442 | 412 | 415 | 450 | 457 | 425
45 | CCCCN(CCCC)CC(O)c1cc(Cl)cc2c1-c1ccc(Cl)cc1/C2=C/c1ccc(Cl)cc1 (centres undefined) | 463 | 438 | 434 | 456 | 449 | 461 | 446 | 472 | 448
46 | COC(=O)c1ccc2c(c1)NC(=O)/C2=C(\Nc1ccc(N(C)C(=O)CN2CCN(C)CC2)cc1)c1ccccc1 | – | – | – | 453 | 459 | 441 | 458 | 462 | 451
47 | COC1=C(OCCCN2CCOCC2)C=CC\3=C1/N=C(/NC(=O)C4=CN=C(N)N=C4)N5CC/N=C35 | 369 | 360 | 358 | – | – | – | 385 | 344 | 364
